US12702648B2 (priority 2023, dated 2026)
In brackets after ≈: the same amount, converted by molar mass.

How the values were obtained:
Assay type in all cases: cell-based
C. albicans (ATCC 10231) = experiment: In vitro antifungal activity (MIC, dilution method); settings: 5×10^6 cells/mL, 24 h at 25° C.
Procedure: In vitro antifungal activity: In order to study the influence of encapsulation of AmB in TDs on the antifungal activity of the drug, the minimal inhibitory concentration (MIC), defined as the lowest concentration inhibiting clearly visible growth of the fungi, was determined by dilution method. The antifungal agents were tested at AmB final concentration range of 0.0125-5 μg/mL. The testing was performed in 96-well plates. Cell suspensions of C. albicans were prepared in Sabouraud's broth and adjusted to a final concentration of 5×10^6 cells/mL (fungal count determined by microscopic counts on a hemocytometer). The 96-well plate was incubated for 24 h at 25° C. and record the lowest concentration of AmB that prevented visible growth of C. albicans.

human kidney 293T cells = experiment: In vitro cytotoxicity test (MTS), 293T; settings: 72 h incubation, AmB concentration
Procedure: (§1) In vitro cytotoxicity test: The cytotoxicity of TDs and AmB loaded nanoparticles (NPs) were studied using murine macrophage-like RAW 264.7 cells and human kidney 293T cells via MTS assays. Briefly, cells were seeded in 96-well plates at a density of 6×10^3 (RAW 264.7) and 3×10^3 (293T) cells per well and incubated overnight (Dulbecco's modified Eagle's medium (DMEM) medium, 5% CO2, 37° C.). TDs or AmB nanoformulations with different concentrations were added into each well to treat the cells. After 72 h incubation, CellTiter 96 AQueous MTS reagent was added to each well according to the manufacturer's instructions. The cell viability was determined by measuring the absorbance at 490 nm using a microplate reader (BioTek Synergy H1) with the untreated cells as negative controls. Results were obtained as the average cell viability of triplicate experiments calculated by a formula of [(ODtreat−ODblank)/(ODcontrol−ODblank)×100%]. Statistical analysis: Statistical analysis was carried out using GraphPad Prism (GraphPad Software, California, USA). One-way analyses of variance (ANOVA) was used for two-group and multiple-group analyses. […] The half maximal inhibitory concentration (IC50) was calculated by nonlinear regression analysis ([Inhibitor] vs. response—Variable slope (four parameters)). The half-life was determined by nonlinear regression analysis (one-phase association).

[1] = tested on: murine macrophage-like RAW 264.7 cells; experiment: In vitro cytotoxicity test (MTS), RAW 264.7; settings: 72 h incubation, AmB concentration
Procedure: as §1

## C[C@@H]1[C@H](O)[C@@H](C)/C=C/C=C/C=C/C=C/C=C/C=C/C=C/[C@H](O[C@@H]2O[C@H](C)[C@@H](O)[C@H](N)[C@@H]2O)C[C@@H]2O[C@](O)(C[C@@H](O)C[C@@H](O)[C@H](O)CC[C@@H](O)C[C@@H](O)CC(=O)O[C@H]1C)C[C@H](O)[C@H]2C(=O)O [free AmB, Amphotericin B]
C. albicans (ATCC 10231)
  MIC (minimum inhibitory concentration): 0.05 µg/mL (≈ 0.0541 µM)
Human kidney 293T cells
  IC50 (cytotoxicity) to 293T: 4.3 µg/mL
[1]
  IC50 (cytotoxicity) to RAW 264.7: 1.8 µg/mL
